For data set [1], the system named is antigen-induced airway hyperresponsiveness to methacholine. Kind of data set: Allergen-induced airway hyperresponsiveness (AHR) in mouse model of asthma. Format: in vivo. The conditions noted are these: 15 or 30 mg/kg s.c., 1 h before and 1 h after each ovalbumin challenge. The method, then: Inhibition of allergen-induced Airway hyperresponsiveness (AHR) and inflammation in mouse model of asthma; Immunization, challenge and drug treatment: Female mice, as specified above, were immunized intraperitoneally (i.p.) with 10 μg ovalbumin mixed with 0.2 ml of aluminum hydroxide gel (Alu-Gel-S; SERVA Electrophoresis GmbH, Heidelberg, Germany), on day 0 and repeated on day 7. On day 14, after the start of immunization, the animals were challenged intra-nasally, once a day for 4 consecutive days, with 50 μl of 0.06% ovalbumin solution in PBS. Control animals were similarly immunized with PBS and challenged intra-nasally with 50 μl PBS. All intra-nasal administrations were done following light anesthesia with halothane.
The animals were divided into 5 groups A-E (10-14 animals per group). […]
Different treatment groups were used for the AHR and cytology/histology studies. Twenty four hours after the last intra-nasal challenge/drug treatment, lung function was measured in some animals while in others bronchoalveolar lavage (BAL), cytology and histology were performed after they were sacrificed with overdose of halothane.
Measurement of AHR: AHR was measured in individual mice using a Finepoint Series RC site (Buxco Research Systems, Wilmington, N.C., USA), according to the manufacturer's guidelines. […]

As a reminder, the melting point is the temperature, or range, at which the solid turns liquid.

As for `CCCCCCCC(=O)N(O)C[C@H]1CN(c2ccc(N3CCOCC3)c(F)c2)C(=O)O1` [PH-251, (R)—N-((3-(3-fluoro-4-morpholinophenyl)-2-oxooxazolidin-5-yl)methyl)-N-hydroxyoctanamide], the melting point was in the range of 119 to 122 °C. Further, the “Development of antigen-induced AHR to inhaled methacholine (FIGS. 4A-4B)” value in data set [1] is on record as “almost completely abolished the development of AHR”.

The values are drawn from patent publication US11608320B2, “Oxazolidinone hydroxamic acid derivatives” (KUWAIT UNIVERSITY, priority 2020, dated 2023).
